Where two headings read alike, the source gives them in different places.
Target: T1, cloned human dopamine D3 receptors (Homo sapiens, UniProt P35462)
T1 construct: expressed in transfected cells; membrane homogenate
Test: [N-Methyl-3H]Spiroperidol binding to cloned human dopamine D3 receptors (Protocol 1)
How it was run: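 Radioligand displacement with [N-methyl-3H]spiroperidol used a physiological-salt Tris buffer (0.05 M, pH 7.7; NaCl 120 mM, KCl 5 mM, CaCl2 2 mM, MgCl2 1 mM) and membranes of a high-expressing stable CHO clone carrying human D3. Total ligand concentration came from measured added CPM; 0.1% ascorbic acid was optional for oxidizable compounds.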

[1] = the 14th table, read-out: D3 Ki
[2] = the 13th table, unit inferred, read-out: D3Ki
[3] = the 15th table, read-out: D3 Ki

T1 sequence (P35462 whole entry): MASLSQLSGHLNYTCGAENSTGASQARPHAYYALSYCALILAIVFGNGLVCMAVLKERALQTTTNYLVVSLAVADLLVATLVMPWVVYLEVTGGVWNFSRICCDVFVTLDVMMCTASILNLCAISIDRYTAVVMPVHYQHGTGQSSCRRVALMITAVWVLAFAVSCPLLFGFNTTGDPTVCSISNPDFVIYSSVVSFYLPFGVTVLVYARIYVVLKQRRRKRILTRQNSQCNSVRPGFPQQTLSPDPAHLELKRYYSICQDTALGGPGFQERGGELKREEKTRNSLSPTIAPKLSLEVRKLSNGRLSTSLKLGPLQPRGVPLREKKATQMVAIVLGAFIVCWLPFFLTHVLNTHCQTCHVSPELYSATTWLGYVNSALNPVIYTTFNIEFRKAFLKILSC

Row | SMILES | Ki (Table 2, read-out: D3K1) | Ki [2] | Ki [3] | further results
1 | O=C(NCCCCCN1CCC(c2noc3ccsc23)CC1)c1ccc2ccccc2c1 [compound 816197] |  | 116 nM |  | 
2 | CCCCCCC(=O)NCCCCCN1CCC(c2noc3ccsc23)CC1 [compound 816202] |  | 326 nM |  | 
3 | C=CCCCCCCC(=O)NCCCCCN1CCC(c2noc3ccsc23)CC1 [compound 816203] |  | 94.1 nM |  | 
4 | O=C(NCCCCCN1CCC(c2noc3ccsc23)CC1)C(Cl)c1ccccc1 (stereo not drawn) [compound 816204] |  | 218 nM |  | 
5 | O=C(NCCCCCN1CCC(c2noc3ccsc23)CC1)C1CCCC1 [compound 816205] |  | 455 nM |  | 
6 | O=C(NCCCCCN1CCC(c2noc3ccsc23)CC1)c1ccccc1[N+](=O)[O-] [compound 816207] |  | 182 nM |  | 
7 | O=C(NCCCCCN1CCC(c2noc3ccsc23)CC1)c1ccc(-c2ccccc2)cc1 [compound 816208] |  | 84.9 nM |  | 
8 | O=C(NCCCCCN1CCC(c2noc3ccsc23)CC1)c1ccccc1 [compound 816212] |  | 570 nM |  | 
9 | O=C(NCCCCCN1CCC(c2noc3ccsc23)CC1)c1cccc(Cl)c1 [compound 816214] |  | 264 nM |  | 
10 | COc1ccc(C(=O)NCCCCCN2CCC(c3noc4ccsc34)CC2)cc1OC [compound 816215] |  | 272 nM |  | 
11 | CCCCc1ccc(C(=O)NCCCCCN2CCC(c3noc4ccsc34)CC2)cc1 [compound 816218] |  | 316 nM |  | 
12 | CCCCCCc1ccc(C(=O)NCCCCCN2CCC(c3noc4ccsc34)CC2)cc1 [compound 816219] |  | 132 nM |  | 
13 | O=C(NCCCCN1C2CCC1CC(c1noc3cc(F)ccc13)C2)c1cccs1 (stereo not drawn) [compound 816323] |  |  | 832 nM | 
14 | CCCCOc1ccc(C(=O)NCCCCN2C3CCC2CC(c2noc4cc(F)ccc24)C3)cc1 (stereo not drawn) [compound 816325] |  |  | 58.3 nM | 
15 | O=C(NCCCCN1C2CCC1CC(c1noc3cc(F)ccc13)C2)c1ccc(C(F)(F)F)cc1 (stereo not drawn) [compound 816326] |  |  | 223 nM | 
16 | O=C(Cc1ccccc1)NCCCCN1C2CCC1CC(c1noc3cc(F)ccc13)C2 (stereo not drawn) [compound 816327] |  |  | 392 nM | 

Row | SMILES | Ki (Table 2, read-out: D3K1) | Ki [2] | Ki [3] | further results
17 | O=C(NCCCCN1C2CCC1CC(c1noc3cc(F)ccc13)C2)c1cccc(F)c1F (stereo not drawn) [compound 816329] |  |  | 356 nM | 
18 | O=C(NCCCCN1C2CCC1CC(c1noc3cc(F)ccc13)C2)c1cccc2ccccc12 (stereo not drawn) [compound 816330] |  |  | 186 nM | 
19 | O=C(NCCCCN1C2CCC1CC(c1noc3cc(F)ccc13)C2)c1ccc(-c2ccccc2)cc1 (stereo not drawn) [compound 816331] |  |  | 44.2 nM | 
20 | COc1ccc(C(=O)NCCCCN2C3CCC2CC(c2noc4cc(F)ccc24)C3)cc1OC (stereo not drawn) [compound 816332] |  |  | 588 nM | 
21 | O=C(NCCCCN1C2CCC1CC(c1noc3cc(F)ccc13)C2)c1ccc(F)cc1 (stereo not drawn) [compound 816333] |  |  | 474 nM | 
22 | O=C(NCCCCN1C2CCC1CC(c1noc3cc(F)ccc13)C2)c1cc2ccccc2s1 (stereo not drawn) [compound 816334] |  |  | 64.6 nM | 
23 | O=C(NCCCCN1C2CCC1CC(c1noc3cc(F)ccc13)C2)c1ccc(Br)cc1 (stereo not drawn) [compound 816335] |  |  | 268 nM | 
24 | CSc1ncccc1C(=O)NCCCCN1C2CCC1CC(c1noc3cc(F)ccc13)C2 (stereo not drawn) [compound 816338] |  |  | 692 nM | 
25 | O=C(NCCCCN1C2CCC1CC(c1noc3cc(F)ccc13)C2)c1ccccc1C(F)(F)F (stereo not drawn) [compound 816340] |  |  | 427 nM | 
26 | CCCc1ccc(C(=O)NCCCCN2C3CCC2CC(c2noc4cc(F)ccc24)C3)cc1 (stereo not drawn) [compound 816341] |  |  | 50.9 nM | 
27 | COc1ccccc1C(=O)NCCCCN1C2CCC1CC(c1noc3cc(F)ccc13)C2 (stereo not drawn) [compound 816343] |  |  | 344 nM | 
28 | Cc1ccc(C(=O)NCCCCN2C3CCC2CC(c2noc4cc(F)ccc24)C3)cc1 (stereo not drawn) [compound 816344] |  |  | 378 nM | 
29 | CCCCCCc1ccc(C(=O)NCCCCN2C3CCC2CC(c2noc4cc(F)ccc24)C3)cc1 (stereo not drawn) [compound 816345] |  |  | 95.6 nM | 
30 | O=C(NCCCCN1C2CCC1CC(c1noc3ccccc13)C2)c1cccs1 (stereo not drawn) [compound 816519] |  |  | 305 nM | 
31 | O=C(NCCCCN1C2CCC1CC(c1noc3ccccc13)C2)c1ccc(F)cc1 (stereo not drawn) [compound 816520] |  |  | 292 nM | 

More lines, main results first:

Row | Ki (Table 2, read-out: D3K1) | Ki [2] | SMILES | Ki [3] | further results
32 | 439 nM |  | O=C(N[C@H](CO)CCCN1CCN(c2csc3cc(C(F)(F)F)ccc23)CC1)c1cnccn1 [compound 815702] |  | Ki (read-out: D3K1): 439 nM; Ki [1]: 439 nM
33 | 137 nM |  | CCn1cc(C(=O)NC(CO)CCCN2CCN(c3csc4cc(C(F)(F)F)ccc34)CC2)c(=O)c2ccc(C)nc21 (stereo not drawn) [compound 815704] |  | Ki (read-out: D3K1): 137 nM; Ki [1]: 137 nM
34 | 180 nM |  | O=C(N[C@H](CO)CCCN1CCN(c2csc3cc(C(F)(F)F)ccc23)CC1)c1cc2ccccc2s1 [compound 815708] |  | Ki (read-out: D3K1): 180 nM; Ki [1]: 180 nM
35 | 124 nM |  | O=C(N[C@H](CO)CCCN1CCN(c2csc3cc(C(F)(F)F)ccc23)CC1)c1ccc2c(c1)S(=O)(=O)c1ccccc1C2=O [compound 815709] |  | Ki (read-out: D3K1): 124 nM; Ki [1]: 124 nM
36 | 210 nM |  | O=C(N[C@H](CO)CCCN1CCN(c2csc3cc(C(F)(F)F)ccc23)CC1)c1cc2ccc(Cl)cc2s1 [compound 815710] |  | Ki (read-out: D3K1): 210 nM; Ki [1]: 210 nM
37 | 28.4 nM |  | O=C(NCCCCN1CCN(c2c(-c3ccccc3)sc3cc(F)ccc23)CC1)c1cccc(F)c1 [compound 815870] |  | Ki [1]: 28.4 nM
38 | 796 nM |  | O=C(NCCCCN1CCN(c2c(-c3ccccc3)sc3cc(F)ccc23)CC1)c1ccc(C(F)(F)F)cc1 [compound 815871] |  | Ki [1]: 796 nM
39 | 567 nM |  | O=C(NCCCCN1CCN(c2c(-c3ccccc3)sc3cc(F)ccc23)CC1)c1ccc(-c2ccccc2)cc1 [compound 815872] |  | 
40 | 263 nM |  | O=C(NCCCCN1CCN(c2c(-c3ccccc3)sc3cc(F)ccc23)CC1)c1cc2ccccc2s1 [compound 815873] |  | 
41 | 282 nM |  | O=C(NCCCCN1CCN(c2c(-c3ccccc3)sc3cc(F)ccc23)CC1)c1ccc(Br)cc1 [compound 815874] |  | 
42 | 292 nM |  | O=C(NCCCCN1CCN(c2c(-c3ccccc3)sc3cc(F)ccc23)CC1)c1cccs1 [compound 815879] |  | 
43 | 837 nM |  | O=C(NCCCCN1CCN(c2c(-c3ccccc3)sc3cc(F)ccc23)CC1)c1ccc(Cl)cc1 [compound 815880] |  | 
44 | 339 nM |  | O=C(NCCCCN1CCN(c2c(-c3ccccc3)sc3cc(F)ccc23)CC1)c1ccc(F)cc1 [compound 815883] |  | 
45 | 296 nM |  | O=C(Cc1cccs1)NCCCCN1CCN(c2c(-c3ccccc3)sc3cc(F)ccc23)CC1 [compound 815884] |  | 
46 |  | 161 nM | O=C(NCCCCCN1CCC(c2noc3ccsc23)CC1)c1cc2ccccc2s1 [compound 816196] |  | 
47 |  | 110 nM | CCOc1ccc(C(=O)NCCCCCN2CCC(c3noc4ccsc34)CC2)cc1 [compound 816198] |  | 
48 |  | 157 nM | O=C(NCCCCCN1CCC(c2noc3ccsc23)CC1)c1ccc(Cl)cc1 [compound 816199] |  | 
49 |  | 505 nM | O=C(Cc1cc2ccccc2s1)NCCCCCN1CCC(c2noc3ccsc23)CC1 [compound 816206] |  | 
50 |  | 224 nM | O=C(NCCCCCN1CCC(c2noc3ccsc23)CC1)c1ccccc1C(F)(F)F [compound 816211] |  | 
51 |  | 364 nM | O=C(NCCCCCN1CCC(c2noc3ccsc23)CC1)c1ccc(F)cc1 [compound 816217] |  | 
52 | 3.7 nM |  | O=C(NCCCCCCN1CCN(c2csc3cc(C(F)(F)F)ccc23)CC1)c1cc2ccccc2[nH]1 [compound 816315] |  | Ki (read-out: D3K1): 3.7 nM; Ki [1]: 3.7 nM
53 | 2.7 nM |  | O=C(NCCCCCCN1CCN(c2csc3cc(C(F)(F)F)ccc23)CC1)c1ccc2[nH]ccc2c1 [compound 816316] |  | Ki (read-out: D3K1): 2.7 nM; Ki [1]: 2.7 nM

From patent US7550469B2, “Heterocyclic amide derivatives and their use as dopamine D3 receptor ligands” (Aventis Pharmaceuticals Inc., priority 2001, dated 2009)
